In PMC11365854, “Molecular basis of hyper-thermostability in the thermophilic archaeal aldolase MfnB” (Extremophiles, 2024):

What was measured:
MfnB_MM [1] = biological target: T1, MfnB_MM (Methanococcus maripaludis, UniProt Q6LZC1); assay: spectrophotometric, 4-HFC-P formation at […] nm; fit with substrate inhibition term; format: biochemical; details: 45 °C (optimum), pH 7.5, 20 mM Tris–HCl, 150 mM NaCl; two substrate molecules condensed
T1 construct: gene mfnB; full length, N-terminal hexa-histidine tag (pOPINF), no tag cleavage described; codon-optimised synthetic gene, expressed in E. coli BL21 (DE3)

MfnB_MJ = biological target: T2, MfnB_MJ (Methanocaldococcus jannaschii, UniProt Q58499); assay: as above; format: biochemical; details: 75 °C (optimum), pH 7.5, 20 mM Tris–HCl, 150 mM NaCl; two substrate molecules condensed; substrate inhibition constant
T2 construct: gene mfnB; full length (235 residues), N-terminal hexa-histidine tag (pOPINF), no tag cleavage described; codon-optimised synthetic gene, expressed in E. coli BL21 (DE3); homohexamer in published crystal structure

MfnB_MM [2] = biological target: T1, MfnB_MM; assay: as above; format: biochemical; details: 45 °C (optimum), pH 7.5, 20 mM Tris–HCl, 150 mM NaCl; two substrate molecules condensed; substrate inhibition constant
purified protein = substrate: O=C[C@H](O)COP(=O)(O)O; assay: purified protein; format: biochemical, Methanocaldococcus jannaschii; details: 75 °C (optimum), pH 7.5, 20 mM Tris–HCl, 150 mM NaCl, two substrate molecules condensed

T1 sequence (Q6LZC1 whole entry): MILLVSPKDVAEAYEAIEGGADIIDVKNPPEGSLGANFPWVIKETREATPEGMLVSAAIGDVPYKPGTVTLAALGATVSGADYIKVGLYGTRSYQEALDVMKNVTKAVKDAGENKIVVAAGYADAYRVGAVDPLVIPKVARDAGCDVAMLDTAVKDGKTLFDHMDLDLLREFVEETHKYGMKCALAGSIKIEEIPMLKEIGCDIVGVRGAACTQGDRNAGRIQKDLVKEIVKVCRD

Km (MfnB_MM [1]) [µM] | Ki (MfnB_MJ) [µM] | Ki (MfnB_MM [2]) [µM] | Molecule | Km (purified protein) [µM] | kcat (purified protein) [s⁻¹]
6.9 ± 0.6 | 565.3 ± 79.7 | 1532.0 ± 160.4 | O=C[C@H](O)COP(=O)(O)O [D-GA-3-P] |  | 
 |  |  | MfnB_MJ (Methanocaldococcus jannaschii DSM 2661) (protein, full length (235 residues), N-terminal hexa-histidine tag (pOPINF), no tag cleavage described; codon-optimised synthetic gene, expressed in E. coli BL21 (DE3); homohexamer in published crystal structure) MILLVSPIDVEEAKEAIAGGADIIDVKNPKEGSLGANFPWMIKAIREVTPKDLLVSATVGDVPYKPGTISLAAVGAAISGADYIKVGLYGVKNYYQAVELMKNVVRAVKDIDENKIVVAAGYADAYRVGAVEPLIVPKIARDAGCDVAMLDTAIKDGKTLFDFQSKEILAEFVDEAHSYGLKCALAGSIKKEHIPILKEIGTDIVGVRGAACKGGDRNNGRIDRELVKELKELCK | 24.6 ± 3.1 | 0.142 ± 0.0067
